# Target: T1, full length p110α/p85α (Homo sapiens, UniProt P42336)
# T1 construct: Full-length human p110α was expressed either in a complex with full-length human p85α (for HTS, biochemistry and HDX-MS); 6xHis tag followed by TEV protease site (N); host or cells: Spodoptera frugiperda Sf9, baculovirus
# Assay: HDX-MS
# Format: binding
# Experimental: Sample preparation: HDX-MS experiments were carried out as described previously. […] In total, three biological replicates, i.e. three separate protein preparations, each with exchange experiments carried out in triplicate were conducted. Data presented in the manuscript is a single biological replicate. Data acquisition and analysis were as follows: Each sample was thawed and injected onto an M-Class Acquity UPLC with HDX Technology (Waters) kept at 0.1°C. Proteins were digested in-line using an Enzymate Pepsin Column (Waters, #186007233) at 15°C for 2 min at 200 μl/min. Peptic peptides were then eluted onto an Acquity UPLC BEH C18 Column (Waters, #186002346) equilibrated in Pepsin-A buffer (0.1% formic acid) and separated using a 5-35% gradient of Pepsin-B buffer (0.1% formic acid, 99% acetonitrile) over 7 min at a flowrate of 40 μl/min. Data were collected on a Waters Cyclic IMS, with an electrospray ionisation source, from 50-2000 m/z. Data were collected in the HDMS^E mode. A single pass of the cyclic IMS was conducted. A “blank” sample of protein dilution buffer with quench was run between samples, and carry-over of peptides was routinely monitored. Five replicates were used to identify non-deuterated peptides. Criteria used to include peptides in the HDX-MS dataset were: minimum intensity 5000, minimum sequence length 5, maximum sequence length 25, a minimum of 3 fragment ions, a minimum of 0.1 products per amino acid, a minimum score of 6.62, a maximum MH+ Error of 10 ppm, identification in at least two datasets with a retention time RSD of less than 10%. Data was analysed using Protein Lynx Global Server (Waters) and DynamX (Waters). All peptides were manually inspected for EX1 kinetics and sufficient quality of the peptide envelope. Data quality, experiment design, and reporting of data meets the criteria as determined by the HDX-MS community. Uptake files were created using Baryonyx. Data are available via ProteomeXchange with identifier PXD037721.
# [1] = PK3CA_HUMAN peptide 241-250, time point 3 of 5
# [2] = PK3CA_HUMAN peptide 241-250, time point 4 of 5
# [3] = PK3CA_HUMAN peptide 241-250, time point 5 of 5
# [4] = PK3CA_HUMAN peptide 260-266, time point 1 of 5
# [5] = PK3CA_HUMAN peptide 260-266, time point 2 of 5
# [6] = PK3CA_HUMAN peptide 260-266, time point 3 of 5
# [7] = PK3CA_HUMAN peptide 260-266, time point 4 of 5
# [8] = PK3CA_HUMAN peptide 260-266, time point 5 of 5
# [9] = PK3CA_HUMAN peptide 262-272, time point 1 of 5
# [10] = PK3CA_HUMAN peptide 262-272, time point 2 of 5
# [11] = PK3CA_HUMAN peptide 262-272, time point 3 of 5
# [12] = PK3CA_HUMAN peptide 262-272, time point 4 of 5
# [13] = PK3CA_HUMAN peptide 262-272, time point 5 of 5
# [14] = PK3CA_HUMAN peptide 273-281, time point 1 of 5
# [15] = PK3CA_HUMAN peptide 273-281, time point 2 of 5
# [16] = PK3CA_HUMAN peptide 273-281, time point 3 of 5
# [17] = PK3CA_HUMAN peptide 273-281, time point 4 of 5
# [18] = PK3CA_HUMAN peptide 273-281, time point 5 of 5
# [19] = PK3CA_HUMAN peptide 278-286, time point 1 of 5
# [20] = PK3CA_HUMAN peptide 278-286, time point 2 of 5
# [21] = PK3CA_HUMAN peptide 278-286, time point 3 of 5
# [22] = PK3CA_HUMAN peptide 278-286, time point 4 of 5
# [23] = PK3CA_HUMAN peptide 278-286, time point 5 of 5
# [24] = PK3CA_HUMAN peptide 287-293, time point 1 of 5
# [25] = PK3CA_HUMAN peptide 287-293, time point 2 of 5
# [26] = PK3CA_HUMAN peptide 287-293, time point 3 of 5
# [27] = PK3CA_HUMAN peptide 287-293, time point 4 of 5
# [28] = PK3CA_HUMAN peptide 287-293, time point 5 of 5
# [29] = PK3CA_HUMAN peptide 288-293, time point 1 of 5
# [30] = PK3CA_HUMAN peptide 288-293, time point 2 of 5
# [31] = PK3CA_HUMAN peptide 288-293, time point 3 of 5
# [32] = PK3CA_HUMAN peptide 288-293, time point 4 of 5
# [33] = PK3CA_HUMAN peptide 288-293, time point 5 of 5
# [34] = PK3CA_HUMAN peptide 326-333, time point 1 of 5
# [35] = PK3CA_HUMAN peptide 326-333, time point 2 of 5
# [36] = PK3CA_HUMAN peptide 326-333, time point 3 of 5
# [37] = PK3CA_HUMAN peptide 326-333, time point 4 of 5
# T1 sequence (P42336 whole entry): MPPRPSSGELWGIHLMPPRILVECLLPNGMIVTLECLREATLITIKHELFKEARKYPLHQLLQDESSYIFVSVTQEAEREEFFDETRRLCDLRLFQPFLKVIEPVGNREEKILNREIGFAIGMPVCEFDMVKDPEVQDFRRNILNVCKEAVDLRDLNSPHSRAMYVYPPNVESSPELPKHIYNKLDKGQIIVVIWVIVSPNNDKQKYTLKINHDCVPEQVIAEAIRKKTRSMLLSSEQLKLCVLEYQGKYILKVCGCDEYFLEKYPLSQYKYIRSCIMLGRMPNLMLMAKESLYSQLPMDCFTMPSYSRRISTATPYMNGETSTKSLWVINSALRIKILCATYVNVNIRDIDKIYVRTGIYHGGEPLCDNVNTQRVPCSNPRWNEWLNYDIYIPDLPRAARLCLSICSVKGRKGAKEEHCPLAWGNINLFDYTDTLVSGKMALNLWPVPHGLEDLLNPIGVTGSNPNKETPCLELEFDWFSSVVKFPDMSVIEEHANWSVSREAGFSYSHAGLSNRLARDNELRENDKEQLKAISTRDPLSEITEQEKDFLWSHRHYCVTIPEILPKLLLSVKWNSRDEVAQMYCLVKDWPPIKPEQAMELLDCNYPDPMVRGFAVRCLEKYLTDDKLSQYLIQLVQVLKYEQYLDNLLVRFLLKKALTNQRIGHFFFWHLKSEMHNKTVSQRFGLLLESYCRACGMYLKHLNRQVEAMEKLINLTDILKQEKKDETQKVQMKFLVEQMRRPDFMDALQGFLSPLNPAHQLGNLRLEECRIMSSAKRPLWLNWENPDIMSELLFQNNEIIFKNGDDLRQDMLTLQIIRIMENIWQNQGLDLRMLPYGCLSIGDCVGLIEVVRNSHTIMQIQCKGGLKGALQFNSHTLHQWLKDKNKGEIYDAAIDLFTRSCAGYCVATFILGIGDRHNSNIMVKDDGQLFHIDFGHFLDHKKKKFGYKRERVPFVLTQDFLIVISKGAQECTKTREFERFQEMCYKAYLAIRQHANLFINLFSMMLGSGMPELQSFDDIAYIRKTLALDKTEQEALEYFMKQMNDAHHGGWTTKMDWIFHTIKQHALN
# T1 sequence (P27986 whole entry partner): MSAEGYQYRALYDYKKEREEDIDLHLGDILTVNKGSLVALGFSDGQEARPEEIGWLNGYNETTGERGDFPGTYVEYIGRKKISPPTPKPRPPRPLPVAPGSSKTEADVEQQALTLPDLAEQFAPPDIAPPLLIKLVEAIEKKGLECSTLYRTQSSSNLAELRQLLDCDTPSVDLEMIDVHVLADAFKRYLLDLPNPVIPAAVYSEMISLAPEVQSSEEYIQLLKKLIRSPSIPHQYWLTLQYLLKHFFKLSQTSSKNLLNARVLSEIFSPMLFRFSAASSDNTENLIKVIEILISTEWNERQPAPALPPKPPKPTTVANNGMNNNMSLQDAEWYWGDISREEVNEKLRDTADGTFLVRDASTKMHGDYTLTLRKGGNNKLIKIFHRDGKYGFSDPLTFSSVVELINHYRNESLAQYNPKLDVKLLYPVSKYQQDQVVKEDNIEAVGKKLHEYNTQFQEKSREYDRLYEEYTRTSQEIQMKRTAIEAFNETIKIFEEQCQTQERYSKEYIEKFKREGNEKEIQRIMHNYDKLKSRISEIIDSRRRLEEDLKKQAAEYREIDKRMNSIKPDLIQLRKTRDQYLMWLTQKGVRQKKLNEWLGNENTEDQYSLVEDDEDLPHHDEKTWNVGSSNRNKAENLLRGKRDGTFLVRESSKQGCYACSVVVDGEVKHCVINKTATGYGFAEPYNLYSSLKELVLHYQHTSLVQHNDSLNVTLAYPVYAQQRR
smiles,measurement,setting,value
CCN1CCN(c2ccc(Nc3cc(Nc4cccc5c4N(C(C)=O)CC5)ccn3)cc2)CC1 [Compound 1938],HDX difference (%D),[1],0.6%
same,HDX difference (Da),[1],0.0529 Da
same,HDX difference (%D),[2],0.112%
same,HDX difference (Da),[2],0.01 Da
same,HDX difference (%D),[3],0.113%
same,HDX difference (Da),[3],0.01 Da
same,HDX difference (%D),[4],-0.0157%
same,HDX difference (Da),[4],-0.000943 Da
same,HDX difference (%D),[5],0.0014%
same,HDX difference (Da),[5],8.39e-5 Da
same,HDX difference (%D),[6],0.136%
same,HDX difference (Da),[6],0.00818 Da
same,HDX difference (%D),[7],0.659%
same,HDX difference (Da),[7],0.04 Da
same,HDX difference (%D),[8],1.2%
same,HDX difference (Da),[8],0.07 Da
same,HDX difference (%D),[9],-0.8%
same,HDX difference (Da),[9],-0.07 Da
same,HDX difference (%D),[10],0.264%
same,HDX difference (Da),[10],0.0238 Da
same,HDX difference (%D),[11],0.3%
same,HDX difference (Da),[11],0.0282 Da
same,HDX difference (%D),[12],-0.571%
same,HDX difference (Da),[12],-0.05 Da
same,HDX difference (%D),[13],-0.7%
same,HDX difference (Da),[13],-0.06 Da
same,HDX difference (%D),[14],1.3%
same,HDX difference (Da),[14],0.10 Da
same,HDX difference (%D),[15],0.9%
same,HDX difference (Da),[15],0.07 Da
same,HDX difference (%D),[16],0.8%
same,HDX difference (Da),[16],0.06 Da
same,HDX difference (%D),[17],0.743%
same,HDX difference (Da),[17],0.06 Da
same,HDX difference (%D),[18],0.428%
same,HDX difference (Da),[18],0.0342 Da
same,HDX difference (%D),[19],-0.131%
same,HDX difference (Da),[19],-0.01 Da
same,HDX difference (%D),[20],-0.178%
same,HDX difference (Da),[20],-0.0142 Da
same,HDX difference (%D),[21],-0.652%
same,HDX difference (Da),[21],-0.05 Da
same,HDX difference (%D),[22],-1.2%
same,HDX difference (Da),[22],-0.10 Da
same,HDX difference (%D),[23],-1.0%
same,HDX difference (Da),[23],-0.08 Da
same,HDX difference (%D),[24],0.00815%
same,HDX difference (Da),[24],0.000489 Da
same,HDX difference (%D),[25],0.168%
same,HDX difference (Da),[25],0.01 Da
same,HDX difference (%D),[26],-0.19%
same,HDX difference (Da),[26],-0.0114 Da
same,HDX difference (%D),[27],-0.0604%
same,HDX difference (Da),[27],-0.00362 Da
same,HDX difference (%D),[28],-0.4%
same,HDX difference (Da),[28],-0.0241 Da
same,HDX difference (%D),[29],-0.334%
same,HDX difference (Da),[29],-0.0167 Da
same,HDX difference (%D),[30],-0.17%
same,HDX difference (Da),[30],-0.00848 Da
same,HDX difference (%D),[31],-0.5%
same,HDX difference (Da),[31],-0.0241 Da
same,HDX difference (%D),[32],0.8%
same,HDX difference (Da),[32],0.04 Da
same,HDX difference (%D),[33],-0.113%
same,HDX difference (Da),[33],-0.00564 Da
same,HDX difference (%D),[34],-1.8%
same,HDX difference (Da),[34],-0.13 Da
same,HDX difference (%D),[35],-4.4%
same,HDX difference (Da),[35],-0.31 Da
same,HDX difference (%D),[36],-3.0%
same,HDX difference (Da),[36],-0.21 Da
same,HDX difference (%D),[37],-3.1%
same,HDX difference (Da),[37],-0.21 Da
same,HDX difference (%D),"PK3CA_HUMAN peptide 326-333, time point 5 of 5",-4.2%
